Assay results published in paper PMC8842277, “Highly Antiproliferative Latonduine and Indolo[2,3-c]quinoline Derivatives: Complex Formation with Copper(II) Markedly Changes the Kinase Inhibitory Profile” (Journal of Medicinal Chemistry, 2022).

Legend:
Assay in all cases: Kinase panel screen
Type in all cases: biochemical
Conditions in all cases: 10 µM compound
PDK1 = PDK1 (Homo sapiens, UniProt O15530)
From the text: (§1) Figure 7 (see also Table S4) summarizes the results of this assay as a histogram plotting the percentage of the remaining enzyme activity (x-axis) as a function of added lead compound (HL^8: blue trace, 8: red trace) for each of the 50 enzymes assayed (y-axis). […] Thus, the coordination to copper(II) completely changes the kinase inhibition profile of HL^8.
(§2) Figure 7 Screening of HL^8 and 8 against 50 enzymes: histogram with % remaining activity on the x-axis plotted against the compound identifier (blue trace: HL^8 and red trace: 8) and enzyme identifier on the […]. The screen was carried out at a compound concentration of 10 μM, an enzyme concentration of 50 nM, and an ATP concentration of 100 μM.
(§3) All kinase assays were carried out using Multidrop 384’s at room temperature in a total assay volume of 25.5 μL. To plates containing 0.5 μL of HL^8 and 8, DMSO control or acid blank […], 15 μL of an enzyme mix containing enzyme […], and excess peptide/protein substrate in buffer was added. Compounds were pre-incubated in the presence of the enzyme and peptide/protein substrate for 5 min before initiation of the reaction by addition of 10 μL of ATP (final concentration selected for each kinase at 5, 20, or 50 μM). Assays were carried out for 30 min at room temperature before termination by the addition of 5 μL of orthophosphoric acid. The assay plates were then harvested onto P81 Unifilter Plates by a PerkinElmer Harvester and air dried. The dry Unifilter plates were then sealed on the addition of MicroScint O and were counted in PerkinElmer Topcount scintillation counters.

CAMKKb = CAMKKb (Homo sapiens, UniProt Q96RR4)
From the text: as §1, §2, §3

MLK3 = MLK3 (Homo sapiens, UniProt Q16584)
From the text: as §1, §2, §3

ROCK 2 = ROCK 2 (Homo sapiens, UniProt O75116)
From the text: as §1, §2, §3

DYRK1A = DYRK1A (Homo sapiens, UniProt Q13627)
From the text: as §1, §2, §3

S6K1 = S6K1 (Homo sapiens, UniProt P23443)
From the text: as §1, §2, §3

RIPK2 = RIPK2 (Homo sapiens, UniProt O43353)
From the text: as §1, §2, §3

EF2K = EF2K (Homo sapiens, UniProt O00418)
From the text: as §1, §2, §3

VEG-FR = VEG-FR (Homo sapiens, UniProt P17948)
From the text: as §1, §2, §3

SmMLCK = SmMLCK (Homo sapiens, UniProt Q15746)
From the text: as §1, §2, §3

CK2 = CK2 (Homo sapiens, UniProt P68400)
From the text: as §1, §2, §3

RSK1 = RSK1 (Homo sapiens, UniProt Q15418)
From the text: as §1, §2, §3

LKB1 = LKB1 (Homo sapiens, UniProt Q15831)
From the text: as §1, §2, §3

PAK4 = PAK4 (Homo sapiens, UniProt O96013)
From the text: as §1, §2, §3

Src = Src (Homo sapiens, UniProt P12931)
From the text: as §1, §2, §3

MARK3 = MARK3 (Homo sapiens, UniProt P27448)
From the text: as §1, §2, §3

TTK = TTK (Homo sapiens, UniProt P33981)
From the text: as §1, §2, §3

EPH-A2 = EPH-A2 (Homo sapiens, UniProt P29317)
From the text: as §1, §2, §3

Lck = Lck (Homo sapiens, UniProt P06239)
From the text: as §1, §2, §3

CK1δ = CK1δ (Homo sapiens, UniProt P48730)
From the text: as §1, §2, §3

IGF-1R = IGF-1R (Homo sapiens, UniProt P08069)
From the text: as §1, §2, §3

SRPK1 = SRPK1 (Homo sapiens, UniProt Q96SB4)
From the text: as §1, §2, §3

MST2 = MST2 (Homo sapiens, UniProt Q13188)
From the text: as §1, §2, §3

TAK1 = TAK1 (Homo sapiens, UniProt O43318)
From the text: as §1, §2, §3

PKCa = PKCa (Homo sapiens, UniProt P17252)
From the text: as §1, §2, §3

Aurora B = Aurora B (Homo sapiens, UniProt Q96GD4)
From the text: as §1, §2, §3

CHK2 = CHK2 (Homo sapiens, UniProt O96017)
From the text: as §1, §2, §3

PLK1 = PLK1 (Homo sapiens, UniProt P53350)
From the text: as §1, §2, §3

TrkA = TrkA (Homo sapiens, UniProt P04629)
From the text: as §1, §2, §3

MKK1 = MKK1 (Homo sapiens, UniProt Q02750)
From the text: as §1, §2, §3

TBK1 = TBK1 (Homo sapiens, UniProt Q9UHD2)
From the text: as §1, §2, §3

IRAK4 = IRAK4 (Homo sapiens, UniProt Q9NWZ3)
From the text: as §1, §2, §3

HIPK2 = HIPK2 (Homo sapiens, UniProt Q9H2X6)
From the text: as §1, §2, §3

JAK3 = JAK3 (Homo sapiens, UniProt P52333)
From the text: as §1, §2, §3

SYK = SYK (Homo sapiens, UniProt P43405)
From the text: as §1, §2, §3

PKD1 = PKD1 (Homo sapiens, UniProt Q15139)
From the text: as §1, §2, §3

Sequence of PLK1 (P53350 whole entry): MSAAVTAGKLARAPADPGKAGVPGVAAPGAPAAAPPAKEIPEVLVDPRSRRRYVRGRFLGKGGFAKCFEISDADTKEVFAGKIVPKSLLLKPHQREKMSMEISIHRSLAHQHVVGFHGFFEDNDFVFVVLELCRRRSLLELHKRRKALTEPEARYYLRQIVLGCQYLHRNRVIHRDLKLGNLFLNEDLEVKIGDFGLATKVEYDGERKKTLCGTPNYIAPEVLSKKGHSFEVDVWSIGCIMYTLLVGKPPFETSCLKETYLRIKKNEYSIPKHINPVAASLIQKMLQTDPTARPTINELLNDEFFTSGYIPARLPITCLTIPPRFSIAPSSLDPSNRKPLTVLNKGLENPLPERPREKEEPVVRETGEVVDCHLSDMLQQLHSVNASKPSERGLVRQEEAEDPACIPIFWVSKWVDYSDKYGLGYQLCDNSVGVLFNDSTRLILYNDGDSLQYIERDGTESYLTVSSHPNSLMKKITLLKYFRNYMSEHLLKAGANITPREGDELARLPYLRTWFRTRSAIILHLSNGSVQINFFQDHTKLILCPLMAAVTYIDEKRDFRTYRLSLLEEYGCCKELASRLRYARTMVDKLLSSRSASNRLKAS
Sequence of RSK1 (Q15418 whole entry): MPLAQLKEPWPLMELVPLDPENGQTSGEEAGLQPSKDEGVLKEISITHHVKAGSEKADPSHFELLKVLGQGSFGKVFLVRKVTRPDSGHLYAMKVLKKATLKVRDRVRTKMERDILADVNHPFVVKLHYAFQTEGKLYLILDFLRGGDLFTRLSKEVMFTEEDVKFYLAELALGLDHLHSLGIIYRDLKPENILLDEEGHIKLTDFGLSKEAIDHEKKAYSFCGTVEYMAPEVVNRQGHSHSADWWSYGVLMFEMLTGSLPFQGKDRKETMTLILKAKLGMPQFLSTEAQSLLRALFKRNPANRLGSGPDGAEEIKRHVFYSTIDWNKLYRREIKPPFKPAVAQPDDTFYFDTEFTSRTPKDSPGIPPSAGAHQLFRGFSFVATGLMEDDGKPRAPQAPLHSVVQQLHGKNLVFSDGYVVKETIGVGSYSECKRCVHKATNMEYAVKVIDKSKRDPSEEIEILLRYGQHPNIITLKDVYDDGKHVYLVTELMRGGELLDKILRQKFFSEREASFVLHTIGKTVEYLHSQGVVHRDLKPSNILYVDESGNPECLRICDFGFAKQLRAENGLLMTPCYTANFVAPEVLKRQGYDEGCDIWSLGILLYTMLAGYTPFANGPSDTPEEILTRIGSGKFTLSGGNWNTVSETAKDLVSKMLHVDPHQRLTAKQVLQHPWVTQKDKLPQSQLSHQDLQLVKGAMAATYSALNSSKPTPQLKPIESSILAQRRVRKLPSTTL
Sequence of Aurora B (Q96GD4 whole entry): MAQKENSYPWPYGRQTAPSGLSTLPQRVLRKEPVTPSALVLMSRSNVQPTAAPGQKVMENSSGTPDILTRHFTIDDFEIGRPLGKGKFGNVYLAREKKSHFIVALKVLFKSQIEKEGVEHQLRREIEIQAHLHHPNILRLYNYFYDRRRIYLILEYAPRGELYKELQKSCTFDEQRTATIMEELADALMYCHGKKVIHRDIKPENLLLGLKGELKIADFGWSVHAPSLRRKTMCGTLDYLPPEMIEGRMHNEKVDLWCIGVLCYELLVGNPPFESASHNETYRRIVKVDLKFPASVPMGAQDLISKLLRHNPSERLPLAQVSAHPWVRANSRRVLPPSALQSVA
Sequence of SRPK1 (Q96SB4 whole entry): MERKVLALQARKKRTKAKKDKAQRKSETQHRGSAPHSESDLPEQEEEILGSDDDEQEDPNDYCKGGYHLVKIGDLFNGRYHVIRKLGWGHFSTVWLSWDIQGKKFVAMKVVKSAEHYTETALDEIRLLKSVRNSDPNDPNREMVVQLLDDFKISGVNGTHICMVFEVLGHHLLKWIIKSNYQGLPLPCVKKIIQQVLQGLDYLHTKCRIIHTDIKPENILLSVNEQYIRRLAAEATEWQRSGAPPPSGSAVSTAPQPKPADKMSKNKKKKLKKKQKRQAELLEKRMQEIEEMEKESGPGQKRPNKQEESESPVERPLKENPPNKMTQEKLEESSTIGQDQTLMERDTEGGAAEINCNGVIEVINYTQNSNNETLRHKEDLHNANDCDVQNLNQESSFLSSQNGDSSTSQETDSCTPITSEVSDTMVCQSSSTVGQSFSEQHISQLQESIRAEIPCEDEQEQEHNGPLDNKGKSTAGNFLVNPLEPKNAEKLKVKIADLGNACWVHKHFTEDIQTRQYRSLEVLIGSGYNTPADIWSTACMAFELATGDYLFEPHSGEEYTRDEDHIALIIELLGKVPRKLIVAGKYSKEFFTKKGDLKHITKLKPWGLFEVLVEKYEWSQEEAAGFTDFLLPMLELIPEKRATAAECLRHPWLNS
Sequence of LKB1 (Q15831 whole entry): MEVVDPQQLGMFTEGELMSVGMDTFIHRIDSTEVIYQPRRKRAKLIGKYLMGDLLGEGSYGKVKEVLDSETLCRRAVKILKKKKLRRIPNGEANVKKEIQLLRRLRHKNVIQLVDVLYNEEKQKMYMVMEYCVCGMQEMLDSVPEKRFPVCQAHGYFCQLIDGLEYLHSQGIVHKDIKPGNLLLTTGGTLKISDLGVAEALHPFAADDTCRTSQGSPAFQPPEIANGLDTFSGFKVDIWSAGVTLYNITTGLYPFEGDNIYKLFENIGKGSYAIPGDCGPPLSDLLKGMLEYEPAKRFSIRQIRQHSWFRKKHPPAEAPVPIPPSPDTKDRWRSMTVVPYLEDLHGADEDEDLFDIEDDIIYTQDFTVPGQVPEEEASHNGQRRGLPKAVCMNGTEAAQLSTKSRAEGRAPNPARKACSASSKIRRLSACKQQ
Sequence of LKB1 (Q7RTN6 whole entry partner): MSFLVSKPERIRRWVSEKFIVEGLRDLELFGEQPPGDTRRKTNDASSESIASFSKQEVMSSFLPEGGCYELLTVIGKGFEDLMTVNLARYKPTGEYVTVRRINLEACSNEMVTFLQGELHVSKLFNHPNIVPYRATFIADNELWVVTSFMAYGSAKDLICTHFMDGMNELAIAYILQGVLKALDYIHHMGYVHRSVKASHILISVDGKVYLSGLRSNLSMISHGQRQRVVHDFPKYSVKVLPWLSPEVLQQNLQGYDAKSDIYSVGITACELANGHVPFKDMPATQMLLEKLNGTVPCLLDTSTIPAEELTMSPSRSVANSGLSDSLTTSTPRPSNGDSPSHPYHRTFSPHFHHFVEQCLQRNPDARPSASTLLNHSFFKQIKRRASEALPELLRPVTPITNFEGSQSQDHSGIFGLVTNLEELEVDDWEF
Sequence of LKB1 (Q9Y376 whole entry partner): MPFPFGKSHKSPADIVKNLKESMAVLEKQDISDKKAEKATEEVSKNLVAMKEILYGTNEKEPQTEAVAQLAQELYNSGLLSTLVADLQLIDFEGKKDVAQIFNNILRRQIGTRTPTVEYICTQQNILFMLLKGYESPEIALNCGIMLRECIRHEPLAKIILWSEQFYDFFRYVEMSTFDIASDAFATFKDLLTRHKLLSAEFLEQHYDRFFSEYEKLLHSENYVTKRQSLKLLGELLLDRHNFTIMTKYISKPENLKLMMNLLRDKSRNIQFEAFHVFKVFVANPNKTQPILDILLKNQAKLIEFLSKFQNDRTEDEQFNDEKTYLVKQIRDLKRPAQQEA
Sequence of MARK3 (P27448 whole entry): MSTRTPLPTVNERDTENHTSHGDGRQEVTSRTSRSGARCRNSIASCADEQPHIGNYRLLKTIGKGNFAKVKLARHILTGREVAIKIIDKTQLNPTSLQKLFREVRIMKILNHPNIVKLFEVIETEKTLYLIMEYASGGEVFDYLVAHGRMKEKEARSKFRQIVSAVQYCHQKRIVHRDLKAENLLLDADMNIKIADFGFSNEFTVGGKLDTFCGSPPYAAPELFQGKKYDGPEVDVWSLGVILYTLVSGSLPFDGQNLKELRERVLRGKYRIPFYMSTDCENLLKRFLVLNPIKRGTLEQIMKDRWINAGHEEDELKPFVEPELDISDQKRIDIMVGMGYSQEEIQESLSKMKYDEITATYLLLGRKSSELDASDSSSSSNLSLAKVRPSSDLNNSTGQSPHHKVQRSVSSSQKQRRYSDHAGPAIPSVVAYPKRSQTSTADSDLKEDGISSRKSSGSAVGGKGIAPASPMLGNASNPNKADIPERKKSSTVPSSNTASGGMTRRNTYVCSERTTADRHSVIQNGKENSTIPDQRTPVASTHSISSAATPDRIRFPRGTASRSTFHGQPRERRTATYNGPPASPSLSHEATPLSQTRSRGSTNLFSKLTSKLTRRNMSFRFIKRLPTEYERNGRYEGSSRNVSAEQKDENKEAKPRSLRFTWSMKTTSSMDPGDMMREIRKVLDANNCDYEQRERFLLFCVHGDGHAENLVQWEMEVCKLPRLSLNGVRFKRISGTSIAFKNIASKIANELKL
Sequence of TAK1 (O43318 1-303 limits assumed): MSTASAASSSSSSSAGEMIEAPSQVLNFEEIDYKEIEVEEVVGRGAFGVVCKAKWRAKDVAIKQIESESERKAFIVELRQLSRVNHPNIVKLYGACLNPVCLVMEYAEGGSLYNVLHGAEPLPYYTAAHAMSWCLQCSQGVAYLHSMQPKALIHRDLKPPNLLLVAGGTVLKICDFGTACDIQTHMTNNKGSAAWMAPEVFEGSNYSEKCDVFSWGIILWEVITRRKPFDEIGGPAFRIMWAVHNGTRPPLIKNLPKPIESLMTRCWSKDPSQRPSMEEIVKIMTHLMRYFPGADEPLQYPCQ
Sequence of MKK1 (Q02750 whole entry): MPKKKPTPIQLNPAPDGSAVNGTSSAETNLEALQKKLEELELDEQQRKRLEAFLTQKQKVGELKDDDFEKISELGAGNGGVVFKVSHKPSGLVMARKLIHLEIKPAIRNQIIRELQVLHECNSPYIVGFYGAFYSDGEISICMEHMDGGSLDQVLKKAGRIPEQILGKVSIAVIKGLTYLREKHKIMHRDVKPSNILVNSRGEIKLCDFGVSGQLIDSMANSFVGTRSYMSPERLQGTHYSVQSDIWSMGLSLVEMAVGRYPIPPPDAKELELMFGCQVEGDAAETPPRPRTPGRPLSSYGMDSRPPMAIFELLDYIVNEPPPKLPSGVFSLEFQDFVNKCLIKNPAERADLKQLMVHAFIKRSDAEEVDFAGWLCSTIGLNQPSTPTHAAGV

CC(=NNc1nc2ccccc2c2c1[nH]c1ccc(Br)cc12)c1ccc(CN2CCOCC2)cn1.[Cl][Cu][Cl] [compound 8, CuCl2(HL^8)·H2O]
% remaining activity (PDK1): 121%
% remaining activity (CAMKKb): 98%
% remaining activity (MLK3): 41%
% remaining activity (ROCK 2): 98%
% remaining activity (DYRK1A): 77%
% remaining activity (S6K1): 109%
% remaining activity (RIPK2): 95%
% remaining activity (EF2K): 108%
% remaining activity (VEG-FR): 77%
% remaining activity (SmMLCK): 87%
% remaining activity (CK2): 79%
% remaining activity (RSK1): 53%
% remaining activity (LKB1): 107%
% remaining activity (PAK4): 144%
% remaining activity (Src): 125%
% remaining activity (MARK3): 112%
% remaining activity (TTK): 64%
% remaining activity (EPH-A2): 132%
% remaining activity (Lck): 54%
% remaining activity (CK1δ): 98%
% remaining activity (IGF-1R): 60%
% remaining activity (SRPK1): 40%
% remaining activity (MST2): 82%
% remaining activity (TAK1): 120%
% remaining activity (PKCa): 80%
% remaining activity (Aurora B): 78%
% remaining activity (CHK2): 119%
% remaining activity (PLK1): 90%
% remaining activity (TrkA): 82%
% remaining activity (MKK1): 94%
% remaining activity (TBK1): 76%
% remaining activity (IRAK4): 105%
% remaining activity (HIPK2): 108%
% remaining activity (JAK3): 120%
% remaining activity (SYK): 39%
% remaining activity (PKD1): 65%
